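Protocol summary: plate cells (96-well), add compound at 5 concentrations, incubate 48 h, interpolate endpoints linearly. Abbreviation: GI50, concentration required for 50% inhibition of growth. Definition used: TGI = concentration required for complete inhibition of growth.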
Tests used:
Test in all cases: DTP human tumour cell line panel, 48 h
EKVX NSCLC = tested on: EKVX NSCLC
HOP-62 NSCLC = tested on: HOP-62 NSCLC
HT29 colon = tested on: HT29 colon
IGROV1 ovarian = tested on: IGROV1 ovarian
MOLT-4 leukemia = tested on: MOLT-4 leukemia
UACC-62 melanoma = tested on: UACC-62 melanoma
SR leukemia = tested on: SR leukemia
HS 578T breast = tested on: HS 578T breast
MCF7 breast = tested on: MCF7 breast
PC-3 prostate = tested on: PC-3 prostate

SMILES	TGI (EKVX NSCLC) [µM]	TGI (HOP-62 NSCLC) [µM]	TGI (HT29 colon) [µM]	TGI (IGROV1 ovarian) [µM]	TGI (MOLT-4 leukemia) [µM]	TGI (UACC-62 melanoma) [µM]	TGI (SR leukemia) [µM]	TGI (HS 578T breast) [µM]	TGI (MCF7 breast) [µM]	TGI (PC-3 prostate) [µM]	GI50 (EKVX NSCLC) [µM]	GI50 (HOP-62 NSCLC) [µM]	GI50 (HS 578T breast) [µM]	GI50 (HT29 colon) [µM]	GI50 (IGROV1 ovarian) [µM]	GI50 (MCF7 breast) [µM]	GI50 (MOLT-4 leukemia) [µM]	GI50 (PC-3 prostate) [µM]	GI50 (UACC-62 melanoma) [µM]	GI50 (SR leukemia) [nM]
Brc1cc(C2OCCCO2)ccc1OCc1ccccc1	> 100	> 100	33.2	> 100	> 100	> 100	–	–	–	–	–	–	–	–	–	–	–	–	–	–
COc1ccc(NC(=O)CC(=O)N/N=C(\C)c2cc3ccccc3oc2=O)cc1	> 100	> 100	> 100	> 100	> 100	> 100	–	–	–	–	–	–	–	–	–	–	–	–	–	–
Cc1ccc(N2C(=O)/C(=C/c3ccc(N(CCC#N)CCC#N)cc3)N=C2COc2ccc(Cl)cc2Cl)cc1	> 100	> 100	> 100	> 100	> 100	> 100	> 100	–	–	–	–	–	–	–	–	–	–	–	–	–
CCCC(O)c1cn(-c2cccc(S(=O)(=O)O)c2)nn1 (centres undefined)	> 100	> 100	> 100	> 100	> 100	> 100	–	–	–	–	–	–	–	–	–	–	–	–	–	–
COc1ccc2c(c1O)[C@@]13CCCC=C1[C@@H](C2)[N+](C)(C)CC3	> 100	> 100	> 100	> 100	–	> 100	–	> 100	> 100	> 100	–	–	–	–	–	–	–	–	–	–
CCCCNS(=O)(=O)c1ccc(-c2ccc3c(c2)-c2ccc(S(=O)(=O)NCCCC)cc2S3(=O)=O)cc1	> 100	37.3	> 100	> 100	> 100	34.3	> 100	–	–	–	–	–	–	–	–	–	–	–	–	–
O=C1CC(c2cccc(Cl)c2)Oc2ccccc21 (centres undefined)	43.7	32.6	33.3	50.7	–	29.8	–	61.8	39.4	30.4	–	–	–	–	–	–	–	–	–	–
C=CCC12CC(=O)CCC1c1ccc(OC)cc1C2=O (centres undefined)	> 100	> 100	> 100	> 100	> 100	> 100	> 100	–	–	–	–	–	–	–	–	–	–	–	–	–
COC(=O)C(=O)C(C(=O)C(=O)Nc1ccccc1[N+](=O)[O-])c1nc2ccc([N+](=O)[O-])cc2[nH]c1=O (centres undefined)	> 100	–	> 100	> 100	> 100	> 100	> 100	–	–	–	–	–	–	–	–	–	–	–	–	–
CC12CCC(=O)C(O1)C1C(=O)c3ccc4c(ccc5ccccc54)c3C(=O)C12 (centres undefined)	19	50.3	> 100	> 100	17.5	2.86	–	> 26.1	13.4	10.7	8.47	26.5	9.77	13.2	7.09	3.89	1.31	4.36	1.46	–
Cc1ccccc1-n1c(=S)[nH]c2c(sc(=O)n2-c2ccccc2C)c1=O	> 100	> 100	> 100	> 100	> 100	> 100	> 100	–	–	–	–	–	–	–	–	–	–	–	–	–
CC(C)=Cc1cc(CCC/C(C)=C/Cc2c(O)cc(C)c(C(=O)O)c2O)co1	> 100	> 100	> 100	> 100	–	> 100	–	> 100	> 100	> 100	–	–	–	–	–	–	–	–	–	–
O=C1OC(=O)C23CSCC12C1C=CC3O1 (centres undefined)	> 100	> 100	> 100	> 100	> 100	> 100	–	–	–	–	–	–	–	–	–	–	–	–	–	–
COc1cc(F)c(F)cc1C(=O)c1cnc(NC2CCN(S(C)(=O)=O)CC2)nc1N	–	> 22.2	> 25	24.5	20.4	7.63	10.2	> 21.8	> 25	> 25	–	6.17	4.71	3.7	5.11	0.76	3.4	2	3.13	1230
O=c1cc[nH]cc1-c1c[nH]ccc1=O	> 100	–	> 100	> 100	> 100	> 100	–	–	–	–	–	–	–	–	–	–	–	–	–	–
CC1=C(CO)C(=O)O[C@@H]([C@@H](C)[C@H]2CC[C@H]3[C@@H]4C[C@H]5O[C@]56[C@@H](O)C=CC(=O)[C@]6(C)[C@H]4CC[C@]23C)C1	1.45	2.48	–	0.544	1.72	2.7	–	> 100	2.43	2.46	0.434	–	0.402	–	–	0.345	–	1.03	–	–
COc1ccc(-c2cc3ccccc3[nH]c2=O)cc1OC	> 100	> 100	> 100	> 100	> 100	> 100	> 100	–	–	–	–	–	–	–	–	–	–	–	–	–
O=C1CS/C(=N/S(=O)(=O)c2ccc(N3N=C4c5ccccc5CC4C3c3cccs3)cc2)N1C(=O)c1ccccc1 (centres undefined)	> 100	63	> 100	> 100	53.4	58.4	–	> 100	> 100	> 100	42.4	32.9	25.3	76.1	28.3	> 100	22.2	38.1	23.2	–
CCOC(=O)c1sc2c(C(=O)OCC)n3cc(C)cc(C)c3c2c1O	90	–	> 100	> 100	> 100	> 100	> 100	–	–	–	–	–	–	–	–	–	–	–	–	–
CCC1CCCCN1CC(C(C)=O)C(c1ccccc1)c1c(O)c2ccccc2oc1=O (centres undefined)	> 100	> 100	> 100	> 100	> 100	> 100	> 100	–	–	–	–	–	–	–	–	–	–	–	–	–
CC(=O)OCC1OC(n2c(=O)[nH]c(=O)c3n[nH]nc32)C(OC(C)=O)C(OC(C)=O)C1OC(C)=O (centres undefined)	> 100	> 100	> 100	> 100	> 100	> 100	> 100	–	–	–	–	–	–	–	–	–	–	–	–	–
CC(C)C[C@H](NC(=O)Cn1cccc(CNC(=O)c2ccccc2)c1=O)B(O)O	–	6.38	11.5	45.8	> 100	3.54	> 100	–	> 100	> 59.1	–	1.21	0.335	0.352	4.01	0.409	0.289	3.08	0.486	304

SMILES	TGI (EKVX NSCLC) [µM]	TGI (HOP-62 NSCLC) [µM]	TGI (HT29 colon) [µM]	TGI (IGROV1 ovarian) [µM]	TGI (MOLT-4 leukemia) [µM]	TGI (UACC-62 melanoma) [µM]	TGI (SR leukemia) [µM]	TGI (HS 578T breast) [µM]	TGI (MCF7 breast) [µM]	TGI (PC-3 prostate) [µM]	GI50 (EKVX NSCLC) [µM]	GI50 (HOP-62 NSCLC) [µM]	GI50 (HS 578T breast) [µM]	GI50 (HT29 colon) [µM]	GI50 (IGROV1 ovarian) [µM]	GI50 (MCF7 breast) [µM]	GI50 (MOLT-4 leukemia) [µM]	GI50 (PC-3 prostate) [µM]	GI50 (UACC-62 melanoma) [µM]	GI50 (SR leukemia) [nM]
O=c1c2ccccc2oc2ccccc12 (tested in a mixture with another compound)	> 100	> 100	–	22.1	–	> 100	> 100	–	–	–	–	–	–	–	–	–	–	–	–	–
CC(C)(C)c1ccc(C2CC(=O)C3=C(C2)Nc2ccccc2N(C(=O)c2ccccc2Cl)C3c2ccc(F)cc2)cc1 (centres undefined)	–	> 100	–	> 100	–	> 100	–	> 100	> 100	> 100	–	> 100	> 100	–	> 100	> 100	–	7.01	> 100	–
CC(=O)c1c[nH]c2ccc(-c3ccnc(Nc4ccc(NC(=O)C5CCCC5)c(CN5CCOCC5)c4)n3)cc12	0.457	3.52	2.25	0.377	0.474	0.0481	–	0.105	0.174	1.05	0.0382	0.0403	0.0207	0.0226	0.0366	0.0304	0.0287	0.0325	0.0205	–
O=C1C(Cl)=C(Cl)C(=O)N1c1ccc(Cl)c(Cl)c1Cl	> 100	> 100	> 100	> 100	> 100	> 100	68	–	–	–	–	–	–	–	–	–	–	–	–	–
COc1cc(C2c3cc4c(cc3OC(O)C2C)OCO4)cc(OC)c1OC (centres undefined)	> 100	> 100	–	51.1	> 31.9	> 100	–	> 100	> 55.9	> 100	–	–	–	–	–	–	–	–	–	–
O=C(O)c1c2c(cc3c(=O)c4ccccc4[nH]c13)CCCC2	> 100	> 100	> 100	> 100	> 100	> 100	> 100	–	–	–	–	–	–	–	–	–	–	–	–	–
O=c1[nH]c2ccccc2c(O)c1/C=N/C(=S)NC1CCCCC1	> 100	> 100	> 100	> 100	> 100	> 100	–	> 100	> 100	> 100	–	–	–	–	–	–	–	–	–	–
CCCCCCCC(=O)[O-].CCCCCCCC(=O)[O-].N.N.N.N.[Co+3].[O-][Cl+3]([O-])([O-])[O-]	> 100	–	–	> 100	> 100	> 100	> 100	–	–	–	> 100	–	–	–	40.3	–	> 100	–	> 100	69900
COc1cc(OC)c2c(=O)cc(-c3ccccc3OCc3ccccc3)oc2c1OC	91.2	44.4	> 100	–	–	17.7	–	–	–	32.5	5.54	10.7	–	28.9	–	–	–	3.34	4.14	–
OCCCCC#Cc1ccccc1C#Cc1cccnc1	> 100	57.4	87.8	52	> 100	> 100	–	> 100	> 100	> 100	41.7	20	44.9	22.3	20.3	67.5	27.9	36.3	35.2	–
CCCCCCC(=O)C/C(CCC(=O)N(Cc1ccccc1)Cc1ccccc1)=N\NC(N)=O	> 100	> 100	> 100	> 100	> 100	> 100	> 100	–	–	–	–	–	–	–	–	–	–	–	–	–
CN1CCC(c2c(O)cc(O)c3c(=O)cc(-c4ccccc4Cl)oc23)C(O)C1 (centres undefined)	0.135	–	> 56.3	> 100	0.198	0.197	–	–	–	–	–	–	–	–	0.0827	–	–	–	0.0506	–
C1CSC[C@H]2COC[C@@H](CSCCS1)S2	> 100	> 100	> 100	–	> 100	–	> 100	–	> 100	> 100	–	–	–	–	–	–	–	–	–	–
COC(=O)/C(C#N)=C1\CCC(OC)N1C (centres undefined)	> 100	> 100	> 100	> 100	> 100	> 100	–	–	–	–	–	–	–	–	–	–	–	–	–	–
O=C1CC(C2(O)C(=O)Nc3ccc([N+](=O)[O-])cc32)c2ccccc21 (centres undefined)	> 100	> 100	62.7	45.1	57.7	40.2	46.6	–	–	–	–	–	–	–	–	–	–	–	–	–
N#C/C(=C/N1CCN(C(=O)c2ccco2)C1=S)C(=O)Nc1ccc(Cl)cc1	–	> 50	> 50	> 50	> 50	> 50	21.3	–	> 50	> 50	–	25.7	–	21.4	25.3	21	17.8	18.9	16.9	1560
COc1cc2c(cc1OC)C(C(CBr)CBr)N(C1CCCC1)CC2 (centres undefined)	> 100	> 100	> 100	> 100	> 100	> 100	> 100	–	–	–	–	–	–	–	–	–	–	–	–	–
CC12OC(C(=O)C13CC3)C1C(=O)c3c(O)ccc(O)c3C(=O)C12 (centres undefined)	48.3	60.5	38.9	29.7	10.2	–	–	46.2	26.3	37.1	12.1	21.3	16.3	16.2	13.4	11.2	2.35	16.5	–	–
O=C(c1ccccc1)c1nnn(Cc2ccccc2Cn2nnc(C(=O)c3ccccc3)c2C(=O)c2ccccc2)c1C(=O)c1ccccc1	> 100	> 100	> 100	> 100	> 100	> 100	> 100	–	–	–	–	–	–	–	–	–	–	–	–	–
CC(C)N(C(=O)C12C3C4C5(C(=O)O)C(C1C35I)C42C(=O)O)C(C)C (centres undefined)	> 100	> 100	> 100	> 100	> 100	> 100	> 100	–	–	–	–	–	–	–	–	–	–	–	–	–
Fc1ccc2c(c1)C1=C(CCC2)C(c2ccc(Cl)cc2)NC(=S)N1 (centres undefined)	> 100	–	> 100	> 100	> 100	> 100	–	> 100	> 100	> 100	32.8	–	50.5	49.9	10.3	26.6	24.5	17.6	33.6	–

— PubChem BioAssay (NCI)
